Assay results: publication PMC10447463, “Data-mining unveils structure–property–activity correlation of viral infectivity enhancing self-assembling peptides” (Nature Communications, 2023)
“And” between values parts separate entries of the source, which are not always exact repeats. Identical values can stand only once. Like-named read-outs stand apart in the source and are kept apart here.

How the values were obtained:
[1] = tested on: HIV-1 infection of TZM-bl cells; assay: HIV-1 infectivity enhancement assay, β-galactosidase luminescence; assay type: cell-based; conditions: for Log10 Inf. rel. to EF-C: log10 of HIV-1 infection of TZM-bl cells relative to EF-C, Fig S15 source data, asymmetric std dev errors; for Rel-to EFC / n-fold to virus: Fig S8 panels B, D
[2] = β-sheet content by ATR-FT-IR; assay type: physicochemical
In short: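 Spectra: 64 scans, 2 cm^-1, lyophilized PNF (1 mg/mL source). CR = 100 − 100 × filtrate/original fluorescamine signal; triplicate, ± SD.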

[3] = Zeta-potential measurement; assay type: physicochemical; conditions: for Zeta-pot. / mV: zeta potential of peptide, Fig S15 source data
In short: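 PBS pH 7.4, 1 mg/mL peptide (DMSO stock), 1 d RT aggregation; diluted in 1 mM KCl pre-read; mobility → zeta (Smoluchowski); n = 3, 2 expts averaged.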

[4] = Turbidity, derived count rate of scattered light; assay type: physicochemical; conditions: for Zeta Count Rate / kcps / Count Rate: derived count rate of scattered light; for Log Count Rate: log of derived count rate; for Count Rate: turbidity
In short: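 One-day room-temperature aggregation at 1 mg/mL in PBS (pH 7.4) preceded measurement; samples then went into 1 mM KCl. Triplicates per sample, two independent experiments averaged.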

[5] = Feb2021, 1.3 µM value relative to virus only (0 µM)
[6] = Feb2021, Log10 of infectivity relative to EF-C
[7] = Feb2021, n-fold enhancement relative to EF-C
[8] = Feb2021, n-fold infectivity relative to EF-C
[9] = Feb2021, unrounded values of the 1.3 µM column
[10] = Feb2021 run, infectivity n-fold relative to virus alone
[11] = Feb2021 run, log10 of infectivity relative to EF-C
[12] = Feb2021 run, n-fold infectivity relative to EF-C
[13] = infectivity class (low / medium / high) of each library peptide, main list in c1-c6, same classes repeated in sub-lists of sequences containing the hydrophobicity/charge patterns P+,H0,P+,H0,P0,H0,P0, P+,H0,P0,H0,P0,H0,P0, P+,H0,P0,H0
[14] = category 1 or 0 from count rate, key not given
[15] = mean, std deviation in next column
[16] = mean, std deviation in separate column
[17] = Feb2021, figures match the 1.3 µM column
[18] = Feb2021, infectivity enhancement relative to EF-C
[19] = Feb2021, infectivity relative to virus only
[20] = category derived from the zeta potential
[21] = category 1 or 0 derived from the count rate, key not given
[22] = infectivity enhancement relative to EF-C
[23] = infectivity n-fold relative to virus alone

| Sequence | Log10 of Rel to EFC (Feb2021) [1, 6] | Rel-to EFC (Feb-2021) [1, 7] | Rel-to EFC (Feb-2021) [1, 8] | n-fold to virus (Feb2021) [1, 10] | Log10 of Rel to EFC (Feb2021) [1, 11] | Rel-to EFC (Feb-2021) [1, 12] | infectivity [1, 13] | Log10 Inf. rel. to EF-C [1] | FTIR ß-sheet content/ % [2] [%] | FTIR ß-sheet content/ % ([2]; ATR-FT-IR) | Zeta category ( +1 = if > 4 mV;-1 = if < -4 mV; 0 = -4mV to 4 mV) [3] | Zeta category ( +1 = if > 4 mV;-1 = if < -4 mV; 0 = -4mV to 4 mV) ([3]; category from zeta potential) | Zeta Pot. / mV ([3]; mean, Std Zeta in next column) [mV] | Zeta Pot. / mV ([3]; mean, Std in separate column) [mV] | Zeta-pot. / mV [3] [mV] | Zeta Count Rate Category [4, 14] | Zeta Count Rate / kcps [4, 15] [kcps] | Zeta Count Rate / kcps [4, 16] [kcps] | n-fold to virus (Feb2021) [1, 19] | Zeta Pot. / mV [3] [mV] | further results |
| --- | --- | --- | --- | --- | --- | --- | --- | --- | --- | --- | --- | --- | --- | --- | --- | --- | --- | --- | --- | --- | --- |
| QCKFKFQFNMWQ [CK7] | -0.2086 | 0.6186 | 0.6186 | 25.99 | -0.2086 | 0.6186 | medium | -0.2086 | 47.05 | 47% and 47.05% | 1 (+1 = if > 4 mV) | 1 (+1 = if > 4 mV) | 21.07 | 21.07 | 21.07 | 1 | 1208 | 1208 | – | – | n-fold to virus (Feb2021) [1, 5]: 25.99; Absolute Infectivity / RLU /s (Feb2021) [1, 9]: 19753.33333 RLU /s; Zeta Count Rate Category ([4]; category 1/0, no key printed): 1 |
| QCKFKQFF [CK12] | -1.907 | – | 0.01239 | 0.5204 | -1.907 | 0.01239 | low | -1.907 | – | 0% | 1 (+1 = if > 4 mV) | – | 4.94 | 4.94 | 4.94 | – | 225.4 | 225.4 | 0.5204 | 4.94 | Absolute Infectivity / RLU /s (Feb2021) [1, 17]: 170 RLU /s; Rel-to EFC (Feb-2021) [1, 18]: 0.01239; Zeta category ( +1 = if > 4 mV;-1 = if < -4 mV; 0 = -4mV to 4 mV) [3, 20]: 1 (+1 = if > 4 mV); Zeta Count Rate Category ([4]; category 1 / 0, no key given): 1; Zeta Count Rate Category [4, 21]: 1; Zeta Count Rate / kcps [4]: 225.4 kcps |
| QCKFKQFFNM [CK11] | -0.3706 | – | 0.426 | 17.9 | -0.3706 | 0.426 | medium | -0.3706 | 41.84 | 42% and 41.84% | 1 (+1 = if > 4 mV) | – | 13.67 | 13.67 | 13.67 | – | 10384.7 | 10384.7 | 17.9 | 13.67 | Absolute Infectivity / RLU /s (Feb2021) [1, 17]: 5847 RLU /s; Rel-to EFC (Feb-2021) [1, 18]: 0.426; Zeta category ( +1 = if > 4 mV;-1 = if < -4 mV; 0 = -4mV to 4 mV) [3, 20]: 1 (+1 = if > 4 mV); Zeta Count Rate Category ([4]; category 1 / 0, no key given): 1; Zeta Count Rate Category [4, 21]: 1; Zeta Count Rate / kcps [4]: 10384.7 kcps |
| QCKFKQFFNMWQ [CK10] | -0.606 | 0.2478 | 0.2478 | 6.098 | -0.606 | 0.2478 | medium | -0.6059 | 41.78 | 42% and 41.78% | 1 (+1 = if > 4 mV) | 1 (+1 = if > 4 mV) | 9.587 | 9.587 | 9.587 | 1 | 18911.36667 | 18911.36667 | 6.098 | 9.587 | Rel-to EFC [1, 22]: 0.2478; n-fold to virus [1, 23]: 6.098; Log Count Rate ([4]; Fig S8 panels B, D): 4.277; Count Rate ([4]; Fig S8 panels B, D): 18911.4; Zeta Count Rate Category ([4]; category 1 / 0, no key given): 1; Zeta Count Rate / kcps [4]: 18911.36667 kcps |
| QCKIKIQINMWQ [EF-C opt] | 0.01546 | 1.036 | 1.036 | 43.54 | 0.01546 | 1.036 | high | 0.01546 | 48.38 | 48% and 48.38% | 1 (+1 = if > 4 mV) | 1 (+1 = if > 4 mV) | 11.73 | 11.73 | 11.73 | 1 | 8271 | 8271 | – | – | n-fold to virus (Feb2021) [1, 5]: 43.54; Absolute Infectivity / RLU /s (Feb2021) [1, 9]: 21221.11111 RLU /s; Rel-to EFC [1, 22]: 1.036; n-fold to virus [1, 23]: 43.54; infectivity ([1]; infectivity class (low / medium / high) of the peptide in the sequence-pattern analysis, Fig. S22-A4, class limits not given): high; Log Count Rate ([4]; Fig S8 panels A, C, asymmetric log errors): 3.918; Log Count Rate ([4]; Fig S8 panels B, D): 3.918; Count Rate ([4]; Fig S8 panels B, D): 8271.27; Zeta Count Rate Category ([4]; category 1/0, no key printed): 1 |
